From patent US20260008775A1, “AZOLE MODULATORS OF CHOLESTEROL BIOSYNTHESIS AND THEIR USE FOR PROMOTING REMYELINATION” (GENENTECH, INC., priority 2022, published 2026)
Like-named read-outs stand apart in the source and are kept apart here.

Legend:
[1] = tested on: zymostenol accumulation (EBP) in EpiSC-derived OPCs; assay: GC/MS-based sterol profiling, zymostenol accumulation in EpiSC-derived OPCs; format: cell-based, mouse; conditions: EpiSC-derived OPCs, 24 hr, 8 doses from 0.15 nM to 333 nM, read-out: Mouse Zymostenol GCMS EC50
How it was run: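 Zymostenol level is expressed relative to that after 24 h with 100 nM positive-control reference, measured by full-scan GC/MS (m/z 458) with cholesterol-d7 internal standard after BSTFA derivatisation. Cells were EpiSC-derived OPCs, 100,000/well in N2B27 without growth factors, treated 24 h, from two or more independent platings.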

[2] = tested on: EpiSC-derived OPCs; assay: In vitro phenotypic screening of OPCs, MBP high-content imaging (percentage of oligodendrocytes); format: cell-based, mouse; conditions: 3 days, MBP stain, dose-response 0.5 nM to 1000 nM, read-out: OPC EC50
Description: To assess effects of treatments on OPCs, all treatments were assayed in two or more independent platings of epiblast stem cell-derived OPCs (EpiSC). EpiSC-derived OPCs were obtained using in vitro differentiation protocols and culture conditions described previously (Najm et al, 2011, Nature Methods). OPCs were expanded and frozen down in aliquots. OPCs were thawed into growth conditions for at least one passage before use in further assays.
EpiSC-derived OPCs were grown and expanded in poly-L-ornithine (PO) and laminin-coated flasks in N2B27 media (DMEM/F12 (Gibco), N2-MAX (R&D Systems), B-27 (ThermoFisher), and GlutaMax (Gibco)) supplemented with FGF2 (10 μg/mL, R&D systems, 233-FB-025) and PDGF-AA (10 μg/mL, R&D systems, 233-AA-050) before harvesting for experiments. The cells were seeded onto poly-L-ornithine or poly-D-lysine coated CellCarrier Ultra plates (PerkinElmer) coated with laminin (Sigma, L2020) at a density of 150,000/cm^2 in N2B27 media without growth factors. For dose-response testing, a 1000× compound stock in dimethyl sulphoxide (DMSO) was added to assay plates, resulting in 8-point dose curves with final concentrations between 1000 nM and 0.5 nM. Positive controls and DMSO vehicle controls were included in each assay plate. Cells were incubated under standard conditions (37° C., 5% CO2) for 3 days and fixed with 4% paraformaldehyde (PFA) in phosphate buffered saline (PBS) for 20 min. Fixed plates were washed with PBS, permeabilized with 0.1% Triton X-100, and blocked with 10% donkey serum (v/v) in PBS for 40 min. Then, cells were labelled with MBP antibodies (Abcam, ab7349; 1:200) for 2 h at room temperature, washed with PBS, and stained with Alexa Fluor conjugated secondary antibodies (1:500) for 45 min. Nuclei were visualized by DAPI staining (Sigma; […]), followed by further PBS washes.
Cells and cell culture plates were imaged on the Operetta High Content Imaging and Analysis system (PerkinElmer). Analysis (PerkinElmer Harmony and Columbus software) began by identifying intact nuclei stained by DAPI. The peri-nuclear region of each cell was then cross-referenced with the mature myelin protein (MBP) stain to identify oligodendrocyte nuclei, and from this the percentage of oligodendrocytes was calculated. EC50 values were calculated using The Levenberg-Marquardt algorithm to fit a Hill equation to dose-response data (0.5 nM to 1000 nM).

[3] = biological target: human emopamil binding protein and human 7-dehydrocholesterol reductase (hEBP-DHCR7) (Homo sapiens (Human), UniProt Q15125); assay: hEBP-DHCR7 radioligand binding assay (filter binding, membranes of co-expressing HEK293 cells); conditions: competition with [3H] radioligand, 8 doses 0.06 to 5000 nM, Ki calculated from IC50
How it was run: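 Compound, either single dose 1 μM or eight 5-fold dilutions from 0.06 to 5000 nM, competed with a [3H]-labelled ligand added at 25 nM for binding to co-expressing HEK293 membranes. IC50 came from nonlinear regression, with full block and DMSO as controls, then Cheng–Prusoff conversion to Ki.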

human emopamil binding protein and human 7-dehydrocholesterol reductase (hEBP-DHCR7), sequence (Q15125 whole entry): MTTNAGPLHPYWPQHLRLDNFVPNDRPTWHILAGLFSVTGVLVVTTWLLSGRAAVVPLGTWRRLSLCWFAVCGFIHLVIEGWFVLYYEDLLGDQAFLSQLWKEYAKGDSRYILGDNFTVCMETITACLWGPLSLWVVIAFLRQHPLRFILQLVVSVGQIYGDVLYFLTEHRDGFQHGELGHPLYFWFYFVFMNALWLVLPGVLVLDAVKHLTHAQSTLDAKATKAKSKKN

Compound	EC50 ([1]; Mus musculus, 24 h) [nM]	EC50 ([2]; Mus musculus, 72 h) [nM]	Ki [3] [nM]	EC50 [1] [nM]	EC50 [2] [nM]
CC(C)n1nc(-c2cccc(C(F)(F)F)c2)nc1[C@@H]1CC[C@H](N2CCOCC2)C1 (single isomer, unassigned) [22*]	1.33	6.73	10.9		
CC(C)n1nc(-c2cccc(C(F)(F)F)c2)nc1[C@H]1CC[C@H](N2CCOCC2)C1 (single isomer, unassigned) [23*]			15.5	13.1	132
CC(C)n1nc(-c2cccc(C(F)(F)F)c2)nc1[C@H]1CC[C@H](N2CCOCC2)C1 (single isomer, unassigned) [24*]			8.9	1.65	11.3
CC(C)n1nc(-c2cc(C(F)(F)F)ccn2)nc1[C@@H]1CC[C@H](N2CCOCC2)C1 (single isomer, unassigned) [28*]	8.11	80.4	29.9		
CC(C)n1nc(-c2cncc(C(F)(F)F)c2)cc1[C@H]1[C@@H]2CC(N3CCCOCC3)C[C@@H]21 (single isomer, unassigned) [30*]	14.8	90	32.5		
CC(C)n1nc(-c2cncc(C(F)(F)F)c2)cc1[C@H]1[C@@H]2C[C@@H](N3C[C@H]4C[C@@H]3CO4)C[C@@H]21 (single isomer, unassigned) [35*]	30	175	112		
CC(C)n1nc(-c2cncc(C(F)(F)F)c2)cc1[C@H]1[C@@H]2C[C@@H](N3C[C@@H]4C[C@H]3CO4)C[C@@H]21 (single isomer, unassigned) [36*]	230	144	211		
CC(C)n1nc(-c2cncc(C(F)(F)F)c2)cc1[C@H]1[C@@H]2C[C@H](N3C[C@H]4C[C@@H]3CO4)C[C@@H]21 (single isomer, unassigned) [37*]	18	98	33		
CC(C)n1nc(-c2cncc(C(F)(F)F)c2)cc1[C@H]1[C@@H]2C[C@H](N3C[C@@H]4C[C@H]3CO4)C[C@@H]21 (single isomer, unassigned) [38*]	9.32	71	47.6		
CC(C)n1nc(-c2cncc(C(F)(F)F)c2)cc1[C@H]1[C@@H]2C[C@@H](N3CCO[C@@H](C)C3)C[C@@H]21 (single isomer, unassigned) [39*]	255	523	771		
CC(C)n1nc(-c2cncc(C(F)(F)F)c2)cc1[C@H]1[C@@H]2C[C@@H](N3CCO[C@H](C)C3)C[C@@H]21 (single isomer, unassigned) [40*]	78	325	111		
CC(C)n1nc(-c2cncc(C(F)(F)F)c2)cc1[C@H]1[C@@H]2C[C@H](N3CCO[C@@H](C)C3)C[C@@H]21 (single isomer, unassigned) [41*]	2.86	7.75	22.6		
CC(C)n1nc(-c2cncc(C(F)(F)F)c2)cc1[C@H]1[C@@H]2C[C@H](N3CCO[C@H](C)C3)C[C@@H]21 (single isomer, unassigned) [42*]	9	43.9	23.6		
CC(C)n1nc(-c2cncc(C(F)(F)F)c2)cc1[C@H]1[C@@H]2C[C@H](N3CCOC[C@@H]3C)C[C@@H]21 (single isomer, unassigned) [45*]	11	48	53		
CC(C)n1nc(-c2cncc(C(F)(F)F)c2)cc1[C@H]1[C@@H]2C[C@H](N3CCOC[C@H]3C)C[C@@H]21 (single isomer, unassigned) [46*]	1.42	0.907	34.8		
CC(C)n1nc(-c2cncc(C(F)(F)F)c2)cc1[C@H]1CC[C@H](N2CCOCC2)C1 (single isomer, unassigned) [58*]	25.1	138	26.2		
CC(C)n1nc(-c2cncc(C(F)(F)F)c2)cc1[C@H]1CC[C@@H](N2CCOCC2)C1 (single isomer, unassigned) [60*]	5.52	36.2	19.2		
CC(C)n1nc(-c2cncc(C(F)(F)F)c2)cc1[C@@H]1CC[C@H](N2CCOCC2)C1 (single isomer, unassigned) [61*]	21.9	102	69.1		
CC(C)n1nc(-c2cncc(C(F)(F)F)c2)cc1[C@@H]1CC[C@H](N2CCCOCC2)C1 (single isomer, unassigned) [62*]	1.73	18.3	13.1		
CC(C)n1nc(-c2cncc(C(F)(F)F)c2)cc1[C@H]1CC[C@H](N2CCCOCC2)C1 (single isomer, unassigned) [63*]	3.49	21.8	14.4		
CC(C)n1nc(-c2cncc(C(F)(F)F)c2)cc1[C@@H]1CC[C@@H](N2CCCOCC2)C1 (single isomer, unassigned) [65*]	16.2	103	28.2		
CC(C)n1nc(-c2cccc(C(F)(F)F)c2)nc1[C@H]1[C@@H]2C[C@H](N3CCOC[C@H]3C)C[C@@H]21 (single isomer, unassigned) [70*]	6.43	0.65	8.76		
CC(C)n1nc(-c2cccc(C(F)(F)F)c2)nc1[C@H]1[C@@H]2C[C@@H](N3CCOC[C@H]3C)C[C@@H]21 (single isomer, unassigned) [71*]	205	749	29		
CC(C)n1nc(-c2ccc(C(F)(F)F)nc2)cc1[C@@H]1CC[C@H](N2CCN(CCO)CC2)C1 (single isomer, unassigned) [87*]	16.4	48.9	26.2		
COCCN1CCN([C@H]2CC[C@@H](c3cc(-c4ccc(C(F)(F)F)nc4)nn3C(C)C)C2)CC1 (single isomer, unassigned) [91*]	11.3	67.6	12.8		
COCCN1CCN([C@@H]2CC[C@H](c3cc(-c4ccc(C(F)(F)F)nc4)nn3C(C)C)C2)CC1 (single isomer, unassigned) [93*]	22.5	125	19.7		
CC[C@@H]1CN([C@@H]2CC[C@H](c3nc(-c4cnc(C(F)(F)F)nc4)nn3C(C)C)C2)CCO1 (single isomer, unassigned) [Compound 109*]	44	285	164		
CC[C@H]1CN([C@@H]2CC[C@H](c3nc(-c4cnc(C(F)(F)F)nc4)nn3C(C)C)C2)CCO1 (single isomer, unassigned) [Compound 110*]	2.48	13.9	14.8		
